According to patent US6645983B1, “Pharmaceutical compositions comprising 4-quinolones for treating cancers” (Laboratoire L. Lafon, priority 1999, dated 2003):

Assays:
A-427 = assay: MTT test, cytotoxic activity on non-clonogenic cell lines; type: cell-based; conditions: Homo sapiens, 10^−5 M, 72 hours incubation, MTT, mean value, read-out: mean optical density, expressed as percentage relative to the mean optical density under the control condition (100%)
Procedure, shortened: (§1)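 Compounds span 10^−5 to 10^−10 M, with solvent-treated wells as control, and the formazan is quantified by absorbance after DMSO solubilization.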

A549 = assay: as above; type: cell-based; conditions: Homo sapiens, 10^−5 M, 72 hours incubation, MTT, mean value, read-out: mean optical density, expressed as percentage relative to the mean optical density under the control condition (100%)
Procedure, shortened: as §1

HCT-15 = assay: as above; type: cell-based; conditions: Homo sapiens, HCT-16, 10^−5 M, 72 hours incubation, MTT, mean value, read-out: mean optical density, expressed as percentage relative to the mean optical density under the control condition (100%)
Procedure, shortened: as §1

LoVo = assay: as above; type: cell-based; conditions: Homo sapiens, 10^−5 M, 72 hours incubation, MTT, mean value, read-out: mean optical density, expressed as percentage relative to the mean optical density under the control condition (100%)
Procedure, shortened: as §1

MCF7 = assay: as above; type: cell-based; conditions: Homo sapiens, 10^−5 M, 72 hours incubation, MTT, mean value, read-out: mean optical density, expressed as percentage relative to the mean optical density under the control condition (100%)
Procedure, shortened: as §1

PC-3 = assay: as above; type: cell-based; conditions: Homo sapiens, 10^−5 M, 72 hours incubation, MTT, mean value, read-out: mean optical density, expressed as percentage relative to the mean optical density under the control condition (100%)
Procedure, shortened: as §1

T-47D = assay: as above; type: cell-based; conditions: Homo sapiens, T47D; T-47D; 10^−5 M; 72 hours incubation; MTT; mean value; read-out: mean optical density, expressed as percentage relative to the mean optical density under the control condition (100%)
Procedure, shortened: as §1

U-373MG = assay: as above; type: cell-based; conditions: Homo sapiens, U373 MG; U-373MG; 10^−5 M; 72 hours incubation; MTT; mean value; read-out: mean optical density, expressed as percentage relative to the mean optical density under the control condition (100%)
Procedure, shortened: as §1

U-87MG = assay: as above; type: cell-based; conditions: Homo sapiens; U-87MG; 10^−5 M; 72 hours incubation; MTT; mean value; read-out: mean optical density, expressed as percentage relative to the mean optical density under the control condition (100%)
Procedure, shortened: as §1

SW1088 = assay: as above; type: cell-based; conditions: Homo sapiens, 10^−5 M, 72 hours incubation, MTT, mean value, read-out: mean optical density, expressed as percentage relative to the mean optical density under the control condition (100%)
Procedure, shortened: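 Human astrocytoma SW1088 cells seeded, grown 24 h at 37° C, 5% CO2, then exposed to compounds at 10^−5 to 10^−10 M versus solvent control. Viability by MTT reduction: 3 h MTT incubation, formazan dissolved in DMSO and read by spectrophotometry.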

J82 = assay: as above; type: cell-based; conditions: Homo sapiens, 10^−5 M, 72 hours incubation, MTT, mean value, read-out: mean optical density, expressed as percentage relative to the mean optical density under the control condition (100%)
Procedure, shortened: (§2)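 Human bladder cancer lines were seeded at 20 000–50 000 cells/ml and, after 24 h, exposed to compounds at 10^−5 to 10^−10 M against a solvent control. Formazan was dissolved in DMSO and viability was read by spectrophotometric optical density.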

T24 = assay: as above; type: cell-based; conditions: Homo sapiens, T-24; T24; 10^−5 M; 72 hours incubation; MTT; mean value; read-out: mean optical density, expressed as percentage relative to the mean optical density under the control condition (100%)
Procedure, shortened: as §2

[1] = Determination of the maximum tolerated dose (MTD); conditions: B6D2F1/Jico, mouse, in vivo, ip; single intraperitoneal administration, doses 2.5 to 160 mg/kg, survival over 14 days
Procedure, shortened: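 Mice were 4- to 6-week-old B6D2F1/Jico. They received a single intraperitoneal dose of 2.5 to 160 mg/kg, and survival and body weight were followed for 14 days. MTD is given in mg/kg and is capped at 160 mg/kg by default.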

COc1ccc(-c2cn(C)c3cc(OC)cc(NCCN(C)C)c3c2=O)cc1 [CRL8462, 5-{[(Dimethylamino)ethyl]amino}-7-methoxy-3-(4-methoxyphenyl)-1-methyl-1,4-dihydro-4-quinolinone]
viability at 10 µM (A-427): 77.1%
viability at 10 µM (A549): 86.8%
viability at 10 µM (HCT-15): 77.4%
viability at 10 µM (LoVo): 84.6%
viability at 10 µM (MCF7): 89.4%
viability at 10 µM (PC-3): 84%
viability at 10 µM (T-47D): 92.2%
viability at 10 µM (U-373MG): 111%
viability at 10 µM (U-87MG): 195%
viability at 10 µM (SW1088): 105%
viability at 10 µM (J82): 105%
viability at 10 µM (T24): 111%
MTD at 14 day [1]: > 160 mg/kg

COc1ccc(-c2cn(C)c3cc(OC)ccc3c2=O)cc1 [CRL8464, 7-Methoxy-3-(4-methoxyphenyl)-1-methyl-1,4-dihydro-4-quinolinone]
viability at 10 µM (A-427): 102%
viability at 10 µM (A549): 91.3%
viability at 10 µM (HCT-15): 111%
viability at 10 µM (LoVo): 101%
viability at 10 µM (MCF7): 99.8%
viability at 10 µM (PC-3): 97.1%
viability at 10 µM (T-47D): 110%
viability at 10 µM (U-373MG): 118%
viability at 10 µM (U-87MG): 105%
viability at 10 µM (SW1088): 95.6%
viability at 10 µM (J82): 95.4%
viability at 10 µM (T24): 105%
MTD at 14 day [1]: > 160 mg/kg

CCOC(=O)Cn1cc(-c2ccc(OC)cc2)c(=O)c2ccc(OC)cc21 [CRL8465, Ethyl 2-[7-methoxy-3-(4-methoxyphenyl)-4-oxo-1,4-dihydro-1-quinolinyl]acetate]
viability at 10 µM (A-427): 85.4%
viability at 10 µM (A549): 80.1%
viability at 10 µM (HCT-15): 165%
viability at 10 µM (LoVo): 110%
viability at 10 µM (MCF7): 94.3%
viability at 10 µM (PC-3): 96.9%
viability at 10 µM (T-47D): 94.4%
viability at 10 µM (U-373MG): 100%
viability at 10 µM (U-87MG): 105%
viability at 10 µM (SW1088): 89.8%
viability at 10 µM (J82): 93.6%
viability at 10 µM (T24): 91.2%
MTD at 14 day [1]: > 160 mg/kg

CCN(CC)C(=O)Cn1cc(-c2ccc(OC)cc2)c(=O)c2ccc(OC)cc21 [CRL8466, N,N-Diethyl-2-[7-methoxy-3-(4-methoxyphenyl)-4-oxo-1,4-dihydro-1-quinolinyl]acetamide]
viability at 10 µM (A-427): 97.5%
viability at 10 µM (A549): 101%
viability at 10 µM (HCT-15): 96.1%
viability at 10 µM (LoVo): 98.9%
viability at 10 µM (MCF7): 108%
viability at 10 µM (PC-3): 102%
viability at 10 µM (T-47D): 95.2%
viability at 10 µM (U-373MG): 59.4%
viability at 10 µM (U-87MG): 97.2%
viability at 10 µM (SW1088): 102%
viability at 10 µM (J82): 93.1%
viability at 10 µM (T24): 69.5%
MTD at 14 day [1]: > 160 mg/kg

COc1ccc(-c2cn(CCC#N)c3cc(OC)ccc3c2=O)cc1 [CRL8467, 3-[7-Methoxy-3-(4-methoxyphenyl)-4-oxo-1,4-dihydro-1-quinolinyl]propanenitrile]
viability at 10 µM (A-427): 90%
viability at 10 µM (A549): 90.8%
viability at 10 µM (HCT-15): 108%
viability at 10 µM (LoVo): 95.8%
viability at 10 µM (MCF7): 98.3%
viability at 10 µM (PC-3): 98.4%
viability at 10 µM (T-47D): 100%
viability at 10 µM (U-373MG): 108%
viability at 10 µM (U-87MG): 95.3%
viability at 10 µM (SW1088): 101%
viability at 10 µM (J82): 96.3%
viability at 10 µM (T24): 94.6%
MTD at 14 day [1]: > 160 mg/kg

CCOC(=O)CCn1cc(-c2ccc(OC)cc2)c(=O)c2ccc(OC)cc21 [CRL8468, Ethyl 3-[7-methoxy-3-(4-methoxyphenyl)-4-oxo-1,4-dihydro-1-quinolinyl]propanoate]
viability at 10 µM (A-427): 69.7%
viability at 10 µM (A549): 93.6%
viability at 10 µM (HCT-15): 111%
viability at 10 µM (LoVo): 97.2%
viability at 10 µM (MCF7): 79.1%
viability at 10 µM (PC-3): 95%
viability at 10 µM (T-47D): 92.2%
viability at 10 µM (U-373MG): 107%
viability at 10 µM (U-87MG): 92.7%
viability at 10 µM (SW1088): 104%
viability at 10 µM (J82): 91.9%
viability at 10 µM (T24): 98.5%
MTD at 14 day [1]: > 160 mg/kg

COc1ccc(-c2cn(CCCC#N)c3cc(OC)ccc3c2=O)cc1 [CRL8470, 4-[7-Methoxy-3-(4-methoxyphenyl)-4-oxo-1,4-dihydro-1-quinolinyl]butanenitrile]
viability at 10 µM (A-427): 103%
viability at 10 µM (A549): 80.2%
viability at 10 µM (HCT-15): 95.5%
viability at 10 µM (LoVo): 86.6%
viability at 10 µM (MCF7): 92.8%
viability at 10 µM (PC-3): 94%
viability at 10 µM (T-47D): 88.8%
viability at 10 µM (U-373MG): 104%
viability at 10 µM (U-87MG): 97.2%
viability at 10 µM (SW1088): 92.5%
viability at 10 µM (J82): 85.6%
viability at 10 µM (T24): 101%
MTD at 14 day [1]: > 160 mg/kg

COc1ccc(-c2cn(CCc3nnn[nH]3)c3cc(OC)ccc3c2=O)cc1 [CRL8474, 7-Methoxy-3-(4-methoxyphenyl)-1-[2-(2H-1,2,3,4-tetrazol-5-yl)ethyl]-1,4-dihydro-4-quinolinone]
melting point: 245 to 246 °C

COc1ccc2[nH]cc(-c3ccccc3)c(=O)c2c1 [CRL8488, 6-Methoxy-3-phenyl-1,4-dihydro-4-quinolinone]
melting point: 355 to 356 °C

COc1cc(OC)c2c(=O)c(-c3ccccc3)cn(C)c2c1 [CRL8489, 5,7-Dimethoxy-3-phenyl-1-methyl-1,4-dihydro-4-quinolinone]
melting point: 179 to 180 °C

COc1ccc(-c2c[nH]c3ccc(OC)cc3c2=O)cc1 [CRL8490, 6-Methoxy-3-(4-methoxyphenyl)-1,4-dihydro-4-quinolinone]
melting point: 335 to 336 °C

COc1ccc(-c2c[nH]c3cccc(OC)c3c2=O)cc1 [CRL8491, 5-Methoxy-3-(4-methoxyphenyl)-1,4-dihydro-4-quinolinone]
melting point: 215 to 216 °C

COc1ccc(-c2c[nH]c3cc(OC)cc(O)c3c2=O)cc1 [CRL8492, 5-Hydroxy-7-methoxy-3-(4-methoxyphenyl)-1,4-dihydro-4-quinolinone]
melting point: 236 to 237 °C

COc1ccc(-c2cn(C)c3cc(OC)cc(OS(=O)(=O)C(F)(F)F)c3c2=O)cc1 [CRL8493, 7-Methoxy-3-(4-methoxyphenyl)-1-methyl-5-trifluoromethanesulfonate-1,4-dihydro-4-quinolinone]
melting point: 184 to 185 °C

C=Cc1cc(OC)cc2c1c(=O)c(-c1ccc(OC)cc1)cn2C [CRL8494, 7-Methoxy-3-(4-methoxyphenyl)-1-methyl-5-vinyl-1,4-dihydro-4-quinolinone]
melting point: 130 to 131 °C

C=CCOc1c(-c2ccc(OC)cc2)cnc2cc(OC)cc(OC)c12 [CRL8496, 4-(Allyloxy)-5,7-dimethoxy-3-(4-methoxyphenyl)-quinoline]
melting point: 169 to 170 °C

COc1ccc(-c2cnc3cc(OC)cc(OC)c3c2OCCC2OCCO2)cc1 [CRL8500, 4-[2-(1,3-Dioxolan-2-yl)ethoxy]-5,7-dimethoxy-3-(4-methoxyphenyl)quinoline]
melting point: 141 to 142 °C

COc1ccc(-c2cnc3c(OC)ccc(OC)c3c2OCCCC#N)cc1 [CRL8501, {[5,8-Dimethoxy-3-(4-methoxyphenyl)-4-quinolyl]oxy}butanenitrile]
melting point: 117 to 118 °C

CCOC(=O)COc1c(-c2ccc(OC)cc2)cnc2cc(OC)cc(OC)c12 [CRL8502, Ethyl 2-{[5,7-dimethoxy-3-(4-methoxyphenyl)-4-quinolinyl]oxy}acetate]
melting point: 238 to 239 °C

COc1ccc(-c2cn(C)c3c(OC)ccc(OS(=O)(=O)C(F)(F)F)c3c2=O)cc1 [CRL8511, 8-Methoxy-3-(4-methoxyphenyl)-1-methyl-5-trifluoro-methanesulfonate-1,4-dihydro-4-quinolinone]
melting point: 179 to 180 °C

C=Cc1ccc(OC)c2c1c(=O)c(-c1ccc(OC)cc1)cn2C [CRL8512, 8-Methoxy-3-(4-methoxyphenyl)-1-methyl-5-vinyl-1,4-dihydro-4-quinolinone]
melting point: 104 to 105 °C

CC(=O)Oc1ccc(-c2cn(C)c3cc(OC(C)=O)cc(OC(C)=O)c3c2=O)cc1 [CRL8513, 5,7-Diacetoxy-3-[4-(acetoxy)phenyl]-1-methyl-1,4-dihydro-4-quinolmone]
melting point: 219 to 220 °C

COc1ccc(-c2cn(CCO)c3c(OC)ccc(OC)c3c2=O)cc1 [CRL8515, 1-(2-Hydroxyethyl)-5,8-dimethoxy-3-(4-methoxyphenyl)-1,4-dihydro-4-quinolinone]
melting point: 126 to 127 °C

COc1ccc(-c2cnc3c(OC)ccc(OC)c3c2OCCO)cc1 [CRL8516, 2-{[5,8-Dimethoxy-3-(4-methoxyphenyl)-4-quinolyl]oxy}-1-ethanol]
melting point: 124 to 125 °C
